Source: the CheMixHub ionic liquid set

Test: xn = mol fraction of the nth substance listed

O=C(O)CCl + CCC[N+](CCC)(CCC)CCC.[Br-]
100 kPa, x2 = 0.333
Details	electrical conductivity [S/m]	viscosity [mPa·s]
308.15 K	0.136	61.13
328.15 K	0.345	21.57

CC(=O)[O-].Cn1cc[nH+]c1 + CCO
293.15 K, 101.3 kPa
Details	electrical conductivity [S/m]
x2 = 0	0.326
x2 = 0.9371	0.448

CCCC[n+]1ccn(C)c1.O=[N+]([O-])[O-] + CCO
101 kPa
Details	viscosity [mPa·s]
283.15 K, x2 = 0.447	35.48
288.15 K, x2 = 0.352	51.47
288.15 K, x2 = 0.663	9.58
288.15 K, x2 = 0.748	6.39
293.15 K, x2 = 0.254	67.9
293.15 K, x2 = 0.4	31.2
293.15 K, x2 = 0.748	5.61
298.15 K, x2 = 0	159
298.15 K, x2 = 0.11	105.5
298.15 K, x2 = 0.2	58.3
298.15 K, x2 = 0.663	7.62
298.15 K, x2 = 0.748	4.83
303.15 K, x2 = 0.447	16.15
303.15 K, x2 = 0.6	10.1
303.15 K, x2 = 0.852	2.46
308.15 K, x2 = 0.11	59.6
308.15 K, x2 = 0.2	38.6
308.15 K, x2 = 0.352	21.4
308.15 K, x2 = 0.663	5.77
313.15 K, x2 = 0.11	47.55
313.15 K, x2 = 0.2	32.1
313.15 K, x2 = 0.254	29.2
318.15 K, x2 = 0.2	26.9
318.15 K, x2 = 0.254	24.53
318.15 K, x2 = 0.4	14.2
318.15 K, x2 = 0.852	1.9
328.15 K, x2 = 0.447	7.87
333.15 K, x2 = 0.254	15.52

CCOS(=O)(=O)[O-].CC[n+]1ccn(C)c1 + CCO
298.15 K, 101 kPa
Details	viscosity [mPa·s]
x2 = 0.2187	47.7
x2 = 0.7508	5.08
x2 = 0.7866	4.31

CC[N+]1(C)CCCC1.COP(=O)([O-])OC + CCO
100 kPa
Details	viscosity [mPa·s]
293.15 K, x1 = 0.0534	2.2
293.15 K, x1 = 0.1535	5.03
298.15 K, x1 = 0.1535	4.5
298.15 K, x1 = 0.306	11.71
303.15 K, x1 = 0.1535	4.05
303.15 K, x1 = 1	123.5
308.15 K, x1 = 0.5052	20.8
308.15 K, x1 = 0.6938	40.6
308.15 K, x1 = 1	93.5
318.15 K, x1 = 0.1054	2.13
323.15 K, x1 = 0.0534	1.37
323.15 K, x1 = 0.1535	2.82
323.15 K, x1 = 0.2015	3.64
323.15 K, x1 = 0.6938	22.8
323.15 K, x1 = 0.8049	30.6
328.15 K, x1 = 0.1054	1.84
328.15 K, x1 = 0.2015	3.34
328.15 K, x1 = 0.6022	14.74
328.15 K, x1 = 0.8049	24.8
333.15 K, x1 = 0.2015	3.05
338.15 K, x1 = 0.0534	1.1
338.15 K, x1 = 0.9073	20.5
338.15 K, x1 = 1	24

CC[n+]1ccn(CCOC)c1.N#C[S-] + CCO
100 kPa
Details	viscosity [mPa·s]
293.15 K, x1 = 0.1	2.15
293.15 K, x1 = 0.3995	8.78
293.15 K, x1 = 0.6	20
293.15 K, x1 = 0.797	42.3
298.15 K, x1 = 0.3002	4.94
303.15 K, x1 = 0.3002	4.39
303.15 K, x1 = 0.8964	35.9
303.15 K, x1 = 1	44.3
308.15 K, x1 = 0.1999	2.58
308.15 K, x1 = 0.7	16.96
308.15 K, x1 = 0.797	23.4
308.15 K, x1 = 0.8964	29.6
308.15 K, x1 = 1	36
313.15 K, x1 = 0.3995	5.28
313.15 K, x1 = 0.797	19.8
318.15 K, x1 = 0.1999	2.14

CCOS(=O)(=O)[O-].CC[n+]1ccn(C)c1 + CCO + CCOC(C)(C)C
298.15 K, 101 kPa
Details	viscosity [mPa·s]
x2 = 0, x3 = 0	100.4
x2 = 0.1271, x3 = 0	65.5
x2 = 0.1281, x3 = 0	66.1
x2 = 0.2039, x3 = 0	49.8
x2 = 0.2187, x3 = 0	47.7
x2 = 0.3088, x3 = 0	34.69
x2 = 0.3256, x3 = 0	32.21
x2 = 0.3598, x3 = 0	28.75
x2 = 0.4147, x3 = 0	22.88
x2 = 0.4336, x3 = 0	21.39
x2 = 0.4604, x3 = 0	18.98
x2 = 0.5103, x3 = 0	15.4
x2 = 0.5223, x3 = 0	14.78
x2 = 0.5724, x3 = 0	11.74
x2 = 0.5926, x3 = 0	10.83
x2 = 0.5951, x3 = 0	10.65
x2 = 0.712, x3 = 0	6.13
x2 = 0.7174, x3 = 0	5.98
x2 = 0.7508, x3 = 0	5.08
x2 = 0.7676, x3 = 0	4.68
x2 = 0.7866, x3 = 0	4.31
x2 = 0.806, x3 = 0	3.86
x2 = 0.8666, x3 = 0	2.709
x2 = 0.9026, x3 = 0	2.189
x2 = 0.9062, x3 = 0	2.138
x2 = 0.9504, x3 = 0	1.628
x2 = 0.9522, x3 = 0	1.589
